These are literature values, as cited in US20050169988A1, “High molecular weight, lipophilic, orally ingestible bioactive agents in formulations having improved bioavailability” (Shaklee Corporation, priority 2001, published 2005).

Regarding `COC1=C(OC)C(=O)C(C/C=C(\C)CC/C=C(\C)CC/C=C(\C)CC/C=C(\C)CC/C=C(\C)CC/C=C(\C)CC/C=C(\C)CC/C=C(\C)CC/C=C(\C)CCC=C(C)C)=C(C)C1=O` [CoQ10, 2,3-dimethoxy-5-methyl-6-decaprenyl-1,4-benzoquinone], the Solubility in water result is listed as “practically insoluble in water”.
